Assay results taken from ChEMBL document CHEMBL4007389, “Discovery and evaluation of inhibitors to the immunosuppressive enzyme indoleamine 2,3-dioxygenase 1 (IDO1): Probing the active site-inhibitor interactions” (Eur J Med Chem, 2017).

Columns and labels:
[1] = Cytotoxicity against mouse LLTC cells assessed as reduction in cell viability after 24 hrs by MTT assay; assay type: cell-based; conditions: read-out: LC50
[2] = molecular target: T1, Indoleamine 2,3-dioxygenase 1 (Homo sapiens, UniProt P14902); experiment: Inhibition of recombinant human IDO1 expressed in bacterial expression system using L-Tryptophan as substrate after 25 mins in absence of GSH and presence of tween20 by fluorescence assay
Target sequence in this assay (P14902 whole entry): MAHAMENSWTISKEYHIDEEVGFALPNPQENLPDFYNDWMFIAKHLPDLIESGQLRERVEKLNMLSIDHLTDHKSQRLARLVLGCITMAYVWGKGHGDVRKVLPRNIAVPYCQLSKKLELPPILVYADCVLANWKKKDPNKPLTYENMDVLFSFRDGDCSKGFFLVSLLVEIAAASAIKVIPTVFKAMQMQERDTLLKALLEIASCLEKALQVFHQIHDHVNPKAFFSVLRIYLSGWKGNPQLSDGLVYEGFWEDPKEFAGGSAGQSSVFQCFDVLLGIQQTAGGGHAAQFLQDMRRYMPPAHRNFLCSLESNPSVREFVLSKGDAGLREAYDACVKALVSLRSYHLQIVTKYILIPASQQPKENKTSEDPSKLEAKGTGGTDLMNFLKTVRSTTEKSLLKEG

[3] = molecular target: Indoleamine 2,3-dioxygenase 1 (Homo sapiens, UniProt P14902, S167A)
Indoleamine 2,3-dioxygenase 1 (Homo sapiens, UniProt P14902, S167A), sequence (P14902 whole entry S167A): as the sequence (P14902 whole entry) above, with S167A counted along it

Homo sapiens = species on record: Homo sapiens; experiment: Selectivity ratio of IC50 for recombinant human IDO1 S167A mutant expressed in Escherichia coli SG13009(pREP4) to IC50 for recombinant human IDO1 expressed in bacterial expression system
[4] = molecular target: T1, Indoleamine 2,3-dioxygenase 1; conditions: 40 uM
Target sequence in this assay (P14902 whole entry, looked up): as the sequence (P14902 whole entry) above

[5] = molecular target: T1, Indoleamine 2,3-dioxygenase 1; experiment: Inhibition of recombinant human IDO1 expressed in bacterial expression system using L-Tryptophan as substrate after 25 mins in absence of GSH and tween20 by fluorescence assay
Target sequence in this assay (P14902 whole entry): as above

LLTC cell line = experiment: Cytotoxicity against mouse LLTC cells assessed as reduction in cell viability after 24 hrs in presence of GSH by MTT assay; assay type: cell-based
[6] = molecular target: T1, Indoleamine 2,3-dioxygenase 1; experiment: Inhibition of full length recombinant human His-tagged IDO1 expressed in mouse LLTC cells using L-tryptophan as substrate after 24 hrs in presence of GSH; assay type: cell-based
Target sequence in this assay (P14902 whole entry): as above

[7] = molecular target: T1, Indoleamine 2,3-dioxygenase 1; experiment: Inhibition of full length recombinant human His-tagged IDO1 expressed in mouse LLTC cells using L-tryptophan as substrate after 24 hrs; assay type: cell-based
Target sequence in this assay (P14902 whole entry): as above

[8] = molecular target: T1, Indoleamine 2,3-dioxygenase 1; experiment: Inhibition of recombinant human IDO1 expressed in bacterial expression system using L-Tryptophan as substrate after 25 mins in presence of GSH and tween20 by fluorescence assay
Target sequence in this assay (P14902 whole entry): as above

[9] = molecular target: T1, Indoleamine 2,3-dioxygenase 1; conditions: 50 uM
Target sequence in this assay (P14902 whole entry, looked up): as the sequence (P14902 whole entry) above

[10] = molecular target: T1, Indoleamine 2,3-dioxygenase 1; experiment: Irreversible inhibition of recombinant human IDO1 expressed in bacterial expression system at 3 uM using L-Tryptophan as substrate after preincubated for 90 mins followed by 100 fold compound dilution measured after 15 mins by fluorescence assay relative to control
Target sequence in this assay (P14902 whole entry, looked up): as the sequence (P14902 whole entry) above

## Oc1nccc(SCc2ccc(Cl)cc2Cl)n1
[1]
  CC50 at 24 h: > 117 µM
[2]
  IC50: 7.5 µM
[3]
  IC50: 20 µM
Homo sapiens
  Ratio IC50: 3
[4]
  inhibition: < 25%
[5]
  IC50: 4.3 µM
LLTC cell line
  Activity: Non-Toxic
[6]
  IC50: 0.2 to 3 µM
[7]
  IC50: 4.4 µM
[8]
  IC50: 0.75 µM

## Cc1ccc([S+]([O-])c2ccc([N+](=O)[O-])c3nonc23)cc1 (centres undefined)
[1]
  CC50 at 24 h: 29 µM
[9]
  inhibition: > 75%
[2]
  IC50: 12 µM
[3]
  IC50: 0.66 µM
Homo sapiens
  Ratio IC50: 0.055
[5]
  IC50: 14 µM
[7]
  IC50: 15 µM
[8]
  IC50: 2.1 µM

## Cc1ccccc1C1=[N+]([O-])c2ccccc2C1=O
[1]
  CC50 at 24 h: 12 µM
[2]
  IC50: 0.46 µM
[3]
  IC50: 2.2 µM
Homo sapiens
  Ratio IC50: 5
[10]
  inhibition: > 75%
[7]
  IC50: 3.9 µM
